According to PubChem BioAssay (NCI):
“And” between values parts separate entries of the source, which are not always exact repeats. Equal values may be shown once.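 Protocol summary: plate cells (96-well), add compound at 5 concentrations, incubate 48 h, interpolate endpoints linearly. At the GI50, growth is halved. TGI: concentration producing complete growth inhibition.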

Legend:
Assay in all cases: NCI-60 cell line screen, 48 h
HCC-2998 colon = system: HCC-2998 colon
HT29 colon = system: HT29 colon
K-562 leukemia = system: K-562 leukemia
LOX IMVI melanoma = system: LOX IMVI melanoma
MDA-MB-231 breast = system: MDA-MB-231 breast
RPMI-8226 leukemia = system: RPMI-8226 leukemia
SF-268 CNS = system: SF-268 CNS
SK-MEL-2 melanoma = system: SK-MEL-2 melanoma
SK-MEL-5 melanoma = system: SK-MEL-5 melanoma
SW-620 colon = system: SW-620 colon

| Compound | TGI (HCC-2998 colon) | TGI (HT29 colon) | TGI (K-562 leukemia) | TGI (LOX IMVI melanoma) | TGI (MDA-MB-231 breast) [µM] | TGI (RPMI-8226 leukemia) | TGI (SF-268 CNS) | TGI (SK-MEL-2 melanoma) | TGI (SK-MEL-5 melanoma) | TGI (SW-620 colon) | GI50 (K-562 leukemia) [µM] | GI50 (SF-268 CNS) [µM] | GI50 (SK-MEL-2 melanoma) [µM] | GI50 (SW-620 colon) [µM] | GI50 (HCC-2998 colon) [µM] | GI50 (HT29 colon) [µM] | GI50 (LOX IMVI melanoma) [µM] | GI50 (RPMI-8226 leukemia) [µM] | GI50 (SK-MEL-5 melanoma) [µM] |
| --- | --- | --- | --- | --- | --- | --- | --- | --- | --- | --- | --- | --- | --- | --- | --- | --- | --- | --- | --- |
| C=C1C(=O)O[C@@H]2/C=C(\C)CC/C=C(\C)CC[C@@]12O | 12.7 µM | 10.9 µM | 12.6 µM | 5.23 µM | 22.8 | 6.43 µM | 13.8 µM | 25.7 µM | 15.5 µM | 3.46 µM |  |  |  |  |  |  |  |  |  |
| COC(=O)C1=C(C)N2CCSC2(C)C(C(=O)OC)C1c1cccc(Cl)c1 (configuration not stated) | 40 µM | 33.4 µM | > 100 µM |  |  | 81.7 µM | 43.7 µM | 34.2 µM | 29 µM | > 100 µM |  |  |  |  |  |  |  |  |  |
| CC[C@@]1(O)C(=O)OCc2c1cc1n(c2=O)Cc2cc3ccccc3nc2-1 | 1.21 µM | 0.839 µM | 45.6 µM | 0.64 µM |  | 0.765 µM | 4.01 µM | 1.22 µM | 0.181 µM | 5.81 µM | 0.0514 | < 0.01 | 0.34 | 0.0246 |  |  |  |  |  |
| CCN1c2cc(Br)cc3[nH]c(=O)n(c23)CCC1C (configuration not stated) | 31.6 µM | 31.6 µM | > 100 µM | 24.7 µM | 43.1 | > 100 µM | 46.1 µM | 31.8 µM | 30 µM | > 100 µM |  |  |  |  |  |  |  |  |  |
| Clc1cc(Cl)c2cc3cccc[n+]3cc2c1Cl | 36.6 µM | 30.7 µM | 45.4 µM | 34.7 µM | 48.9 | 45.7 µM | 26.5 µM | 30.1 µM | 30.5 µM | 34.3 µM |  |  |  |  |  |  |  |  |  |
| CNC1Cc2c[nH]c3cccc(c23)C12C=C(C)C(=O)O2 (configuration not stated) | > 100 µM | > 100 µM | > 100 µM | > 100 µM | > 100 | > 100 µM | > 100 µM | > 100 µM | > 100 µM | > 100 µM |  |  |  |  |  |  |  |  |  |
| Nc1ccc(O)c2c1C(=O)c1c(N)ccc(O)c1C2=O | > 100 µM |  | > 100 µM | > 100 µM |  | > 100 µM | > 100 µM | > 100 µM | > 100 µM | > 100 µM |  |  |  |  |  |  |  |  |  |
| Nc1[nH]c(=S)nc2nc3c(c(-c4ccccc4)c12)CCCC3 |  | > 100 µM | > 100 µM | > 100 µM | > 100 | > 100 µM | > 100 µM |  | > 100 µM | > 100 µM |  |  |  |  |  |  |  |  |  |
| CC(C)(C)OC(=O)N1C(OP(=O)(Oc2ccccc2)Oc2ccccc2)=CSc2ccccc21 | > 100 µM | > 100 µM | > 100 µM | > 100 µM | 77.6 | 52 µM | > 100 µM | 43.7 µM | > 100 µM | > 100 µM |  |  |  |  |  |  |  |  |  |
| CC(C)(C)c1ccc2c(c1)C#Cc1cc(C(C)(C)C)ccc1OCCCO2 |  | > 100 µM | > 100 µM | > 100 µM | > 100 | > 100 µM | > 100 µM | > 100 µM | > 100 µM | > 100 µM |  |  |  |  |  |  |  |  |  |
| COc1cc(/C=C2\N=C(c3ccccc3)N(c3ccc(C(=O)c4ccccc4)cc3N3C(=O)/C(=C/c4ccc(O)c(OC)c4)N=C3c3ccccc3)C2=O)ccc1O | 9.69 µM | 51.5 µM | 53 µM | 37.1 µM | 43.8 | 94.3 µM | 74 µM | 29.9 µM | 20.2 µM | > 100 µM |  |  |  |  |  |  |  |  |  |
| NC(CCOCCP(=O)(O)CCC1C=CC=CC1)C(=O)O (configuration not stated) | > 100 µM | > 100 µM | > 100 µM | > 100 µM | > 100 | > 100 µM | > 100 µM | > 100 µM | > 100 µM | > 100 µM |  |  |  |  |  |  |  |  |  |
| CCN(CC)CC[n+]1ccc2c(C)c3[nH]c4ccc(O)cc4c3c(C)c2c1 | 22.6 µM and 85.4 µM | 41.1 µM and > 67.5 µM | 42.5 µM and 40.2 µM | 44 µM and 58.3 µM | 36.6 | 43.4 µM and 35.6 µM | 7.3 µM and 7.53 µM | 32 µM and 54.2 µM | 12.6 µM and 27.1 µM | 93.1 µM and 88.3 µM |  | 0.685 | 20.8 |  | 6.94 | 12.6 | 6.73 | 3.41 | 4.5 |
| OCC(O)CNc1ncnc2ccccc12 (configuration not stated) | > 100 µM | > 100 µM | > 100 µM | > 100 µM | > 100 | > 100 µM | > 100 µM | > 100 µM | > 100 µM | > 100 µM |  |  |  |  |  |  |  |  |  |
| CCOC(=O)CCC(C(=O)OCC)n1nc2ccc(Nc3c(C)[n+]([O-])c4cc(F)c(OCC)cc4[n+]3[O-])cc2n1 (configuration not stated) | > 100 µM | > 100 µM | > 100 µM | > 100 µM |  | > 100 µM | 37.6 µM | > 100 µM | > 100 µM | > 100 µM |  |  |  |  |  |  |  |  |  |
